Laboratory results as given in patent publication US8946234B2, “Halogen-substituted compounds” (Bayer CropScience AG, priority 2008, dated 2015).
Where two headings read alike, the source gives them in different places.

Test: physchem
Type: physicochemical
Conditions: for chromatographic logP: read-out: logP
Procedure: ^a) Note regarding the determination of the log P values and mass detection: The log P values given were determined in accordance with EEC Directive 79/831 Annex V.A8 by HPLC (High Performance Liquid Chromatography) on a phase inversion column (C18). Agilent 1100 LC system; 50*4.6 Zorbax Eclipse Plus C18 1.8 micron; eluent A: acetonitrile (0.1% formic acid); eluent B: water (0.09% formic acid); linear gradient from 10% acetonitrile to 95% acetonitrile in 4.25 min, then 95% acetonitrile for a further 1.25 min; oven temperature 55° C.; flow: 2.0 ml/min. The mass detection is carried out via an Agilend MSD system.

[1] = HPLC phase inversion (reversed-phase) C18 column, HPLC method a), eluent acetonitrile/water with formic acid

Structure (SMILES) | logP | other results
O=C(NCC(F)(F)F)c1cc(NC(=O)c2cnc(C(F)(F)C(F)(F)F)nc2C(F)F)ccc1Cl [Ib-28] | 3.27^a) | 
O=C(NCc1ccccc1)c1cc(NC(=O)c2cnc(C(F)(F)C(F)(F)F)nc2C(F)F)ccc1Cl [Ib-29] | 3.51^a) | 
O=C(NC1CC1)c1cc(NC(=O)c2cnc(C(F)(F)C(F)(F)F)nc2C2CC2)ccc1Cl [Ib-30] | 3.28^a) | 
O=C(NCC(F)(F)F)c1cc(NC(=O)c2cnc(C(F)(F)C(F)(F)F)nc2C2CC2)ccc1Cl [Ib-31] | 3.65^a) | 
O=C(NCC=CCl)c1cc(NC(=O)c2cnc(C(F)(F)C(F)(F)F)nc2C(F)F)ccc1Cl [Ib-32] | 3.29^a) | 
O=C(NC1CC1)c1cc(NC(=O)c2cnc(C(F)(F)C(F)(F)F)nc2C(F)(F)C(F)(F)F)ccc1Cl [Ib-33] | 3.64^a) | 
O=C(NCC(F)(F)F)c1cc(NC(=O)c2cnc(C(F)(F)C(F)(F)F)nc2C(F)(F)C(F)(F)F)ccc1Cl [Ib-34] | 3.94^a) | 
O=C(NCc1ccccc1)c1cc(NC(=O)c2cnc(C(F)(F)C(F)(F)F)nc2C(F)(F)C(F)(F)F)ccc1Cl [Ib-35] | 4.20^a) | 
O=C(Nc1cc(Br)c(Cl)c(C(=O)NC2CC2)c1)c1cnc(C(F)(F)C(F)(F)F)nc1C(F)(F)F [Ib-36] | 3.62^a) | 
CC(NC(=O)c1cc(NC(=O)c2cnc(C(F)(F)C(F)(F)F)nc2C(F)(F)F)ccc1Cl)C1CC1 (centres unmarked) [Ib-37] | 3.76^a) | 
CN(C(=O)c1cnc(C(F)(F)C(F)(F)F)nc1C(F)(F)F)c1ccc(Cl)c(C(=O)NC2CC2)c1 [Ib-38] | 3.23^a) | 
O=C(NC1CC1)c1cc(NC(=O)c2nccc(C(F)(F)F)c2Cl)ccc1Cl [Ie-1] | 2.48^a) | 
CC(C)NC(=O)c1cc(NC(=O)c2nccc(C(F)(F)F)c2Cl)ccc1Cl [Ie-2] | 2.72^a) | 
O=C(NCC(F)(F)F)c1cc(NC(=O)c2nccc(C(F)(F)F)c2Cl)ccc1Cl [Ie-3] | 2.88^a) | 
O=C(NCC=CCl)c1cc(NC(=O)c2nccc(C(F)(F)F)c2Cl)ccc1Cl [Ie-4] | 2.92^a) | 
O=C(NCc1ccccc1)c1cc(NC(=O)c2nccc(C(F)(F)F)c2Cl)ccc1Cl [Ie-5] | 3.16^a) | 
CC(C)NC(=O)c1cc(NC(=O)c2ncc(C(F)(F)F)cc2Cl)ccc1Cl [Ii-2] | 2.73^a) | 
O=C(NCC(F)(F)F)c1cc(NC(=O)c2ncc(C(F)(F)F)cc2Cl)ccc1Cl [Ii-3] | 2.86^a) | 
O=C(NCC=CCl)c1cc(NC(=O)c2ncc(C(F)(F)F)cc2Cl)ccc1Cl [Ii-4] | 2.93^a) | 
O=C(NCc1ccccc1)c1cc(NC(=O)c2ncc(C(F)(F)F)cc2Cl)ccc1Cl [Ii-5] | 3.17^a) | 
O=C(NC1CC1)c1cc(NC(=O)c2ncc(OCC(F)(F)F)cc2C(F)(F)F)ccc1Cl [Ii-7, N-[4-Chloro-3-(cyclopropylcarbamoyl)phenyl]-5-(2,2,2-trifluoroethoxy)-3-(trifluoromethyl)pyridine-2-carboxamide] |  | chromatographic logP [1]: 2.9
CC(Oc1cc(C(F)(F)F)c(C(=O)Nc2ccc(Cl)c(C(=O)NC3CC3)c2)cn1)C(F)(F)F (centres unmarked) [Ij-2] | 3.32^a) | 
O=C(NC1CC1)c1cc(NC(=O)c2cnc(OCC(F)(F)C(F)(F)F)cc2C(F)(F)F)ccc1Cl [Ij-3] | 3.44^a) | 
Cn1nc(C(F)(F)C(F)(F)F)c(C(F)(F)F)c1C(=O)Nc1ccc(Cl)c(C(=O)O)c1 [Ik-2, 2-Chloro-5-({[1-methyl-3-(pentafluoroethyl)-4-(trifluoromethyl)-1H-pyrazol-5-yl]carbonyl}amino)benzoic acid] |  | chromatographic logP [1]: 3.22; chromatographic logP (HPLC phase inversion (reversed-phase) C18 column, HPLC, method a)): 3.22
Cn1nc(C(F)(F)C(F)(F)F)c(C(F)(F)F)c1C(=O)Nc1cc(Br)c(Cl)c(C(=O)NC2CC2)c1 [Ik-7] | 3.81^a) | 
CC(NC(=O)c1cc(NC(=O)c2c(Br)c(C(F)(F)C(F)(F)F)nn2C)ccc1Cl)C(F)(F)F (centres unmarked) [Ik-11] | 2.00^a) | 

Structure (SMILES) | logP | other results
CC(NC(=O)c1cc(NC(=O)c2c(Br)c(C(F)(F)C(F)(F)F)nn2C)ccc1Cl)C1CC1 (centres unmarked) [Ik-12] | 3.84^a) | 
Cn1nc(C(F)(F)C(F)(F)F)c(C(F)(F)F)c1C(=O)Nc1cccc(C(=O)NC2CC2)c1 [Ik-13] | 3.15^a) | 
Cn1nc(C(F)(F)C(F)(F)F)c(C(F)(F)F)c1C(=O)Nc1cccc(C(=O)NCc2ccccc2)c1 [Ik-14] | 3.77^a) | 
Cn1nc(C(F)(Cl)C(F)(F)F)c(Br)c1C(=O)Nc1ccc(Cl)c(C(=O)NC2CC2)c1 (centres unmarked) [Ik-16] | 3.35^a) | 
Cn1nc(C(F)(F)C(F)(F)F)cc1C(=O)Nc1ccc(Cl)c(C(=O)NC2CC2)c1 [Ik-17] | 2.94^a) | 
Cn1nc(C(F)(F)F)c(Cl)c1C(=O)Nc1ccc(Cl)c(C(=O)NC2CC2)c1 [Ik-18] | 2.77^a) | 
Cn1nc(C(F)(F)F)c(Cl)c1C(=O)Nc1ccc(Cl)c(C(=O)NCC=CCl)c1 [Ik-19] | 3.22^a) | 
Cn1nc(C(F)(F)F)c(Cl)c1C(=O)Nc1ccc(Cl)c(C(=O)NCc2ccccc2)c1 [Ik-20] | 3.46^a) | 
Cn1nc(C(F)(F)F)c(Br)c1C(=O)Nc1ccc(Cl)c(C(=O)NC2CC2)c1 [Ik-21] | 2.75^a) | 
Cn1nc(C(F)(F)F)c(Br)c1C(=O)Nc1ccc(Cl)c(C(=O)NCC=CCl)c1 [Ik-22] | 3.20^a) | 
Cn1nc(C(F)(F)F)c(Br)c1C(=O)Nc1ccc(Cl)c(C(=O)NCc2ccccc2)c1 [Ik-23] | 3.44^a) | 
Cn1nc(C(F)(F)C(F)(F)F)c(C(F)(F)F)c1C(=O)Nc1ccc(Cl)c(C(=O)NS(C)(=O)=O)c1 [Ik-24] | 3.13^a) | 
Cn1nc(C(F)(F)C(F)(F)F)c(C(F)(F)F)c1C(=O)Nc1ccc(OC(F)F)c(C(=O)NC2CC2)c1 [Ik-25] | 3.49^a) | 
Cn1nc(C(F)(F)C(F)(F)F)c(Br)c1C(=O)Nc1ccc(Cl)c(C(=O)NC2CC2)c1 [Ik-26] | 3.22^a) | 
CC(C)NC(=O)c1cc(NC(=O)c2c(Br)c(C(F)(F)C(F)(F)F)nn2C)ccc1Cl [Ik-27] | 3.49^a) | 
Cn1nc(C(F)(F)C(F)(F)F)c(Br)c1C(=O)Nc1ccc(Cl)c(C(=O)NCC=CCl)c1 [Ik-28] | 3.64^a) | 
Cn1nc(C(F)(F)F)cc1C(=O)Nc1ccc(Cl)c(C(=O)NC2CC2)c1 [Ik-71] | 2.48^a) | 
Cn1nc(C(F)(F)C(F)(F)C(F)(F)F)c(Br)c1C(=O)Nc1ccc(Cl)c(C(=O)NC2CC2)c1 [Ik-73] | 3.58^a) | 
CC(C)NC(=O)c1cccc(NC(=O)c2c(C(F)(F)F)c(C(F)(F)C(F)(F)F)nn2C)c1Cl [Ik-77] | 3.47^a) | 
Cn1nc(C(F)(F)C(F)(F)F)c(C(F)(F)F)c1C(=O)Nc1ccc(Cl)c(C(=O)NCc2ccc(F)cn2)c1 [Ik-80] | 4.75^a) | 
CC#CC(C)(C)NC(=O)c1cc(NC(=O)c2c(C(F)(F)F)c(C(F)(F)C(F)(F)F)nn2C)ccc1Cl [Ik-81] | 4.03^a) | 
CSCCNC(=O)c1cc(NC(=O)c2c(C(F)(F)F)c(C(F)(F)C(F)(F)F)nn2C)ccc1Cl [Ik-82] | 3.57^a) | 
Cn1nc(C(F)(F)C(F)(F)F)c(C(F)(F)F)c1C(=O)Nc1ccc(Cl)c(C(=O)NCC=CCl)c1 [Ik-83] | 3.72^a) | 
Cn1nc(C(F)(F)C(F)(F)F)c(C(F)(F)F)c1C(=O)Nc1ccc(Cl)c(C(=O)NCc2ccccc2)c1 [Ik-84] | 3.90^a) | 
CNC(=O)c1cc(NC(=O)c2c(C(F)(F)F)c(C(F)(F)C(F)(F)F)nn2C)ccc1Cl [Ik-85] | 3.04^a) | 
Cn1nc(C(F)(F)C(F)(F)F)c(C(F)(F)F)c1C(=O)Nc1ccc(Cl)c(C(=O)NCC(F)F)c1 [Ik-86] | 3.41^a) | 
